Each structure is given as a SMILES string.

The text below walks through data of patent publication US10183919B2 (priority 2014, dated 2019).

Data set [1] deals with T1, Human MOR (Homo sapiens, UniProt P35372).
T1 construct: expressed in transfected cells; host or cells: HEK-293T
Briefly: cell-based.

Data set [2] deals with T2, Mouse MOR (Mus musculus, UniProt P42866).
T2 construct: expressed in transfected cells; host or cells: HEK-293T
Briefly: BRET G protein activation assay, HEK-293T cells transfected with mouse MOR. It is filed as cell-based. To be noted: BRET G protein activation, HEK-293T; mean ± SEM of independent trials; read-out: EC50 Mouse MOR. From the text:
Transfection. Human or mouse MOR cDNA was transfected alongside GαoB with RLuc8 inserted at position 91 (GαoB-RLuc8), Gβ1 (β1), and Gγ2 fused to the full-length mVenus at its N terminus (mVenus-γ2) into HEK-293T cells (5×10^6 cells/plate) in 10-cm dishes using PEI (Polysciences Inc.; Warrington, Pa.) in a 1:1 ratio diluted in Opti-MEM (Life Technologies Corp.; Grand Island, N.Y.) to assay for G protein activation as described previously (Rives, M.-L. et al. J. Biol. Chem. 2012, 287, 27050-4; Negri, A.; Rives, M.-L.; Caspers, M. J. et al. J. Chem. Inf. Model. 2013, 53, 521-526). Cells were maintained in the Dulbecco's Modified Eagle Medium (high glucose #11965; Life Technologies) supplemented with 10% FBS (Premium Select, Atlanta Biologicals; Atlanta, Ga.) and 100 U/mL penicillin and 100 μg/mL streptomycin (#15140, Life Technologies). After 24 hours the media was changed, and the experiment was performed 24 hours later (48 hours after transfection).
BRET. Transfected cells were dissociated and resuspended in phosphate-buffered saline (PBS). Approximately 200,000 cells/well were added to a black-framed, white well 96-well plate (#60050; Perkin Elmer; Waltham, Mass.). The microplate was centrifuged and the cells were resuspended in PBS. Then 5 μM of the luciferase substrate coelenterazine H was added to each well for 5 minutes. Following coelenterazine H addition, ligands were added and the BRET signal was measured at 5 minutes on a PHERAstar FS plate reader. Quantification of the BRET signal required calculating the ratio of the light emitted by the energy acceptor, mVenus (510-540 nm), over the light emitted by the energy donor, RLuc8 (485 nm). […] Dose response curves were fit using three-parameter logistics equation in GraphPad Prism 6.
(In BRET a luciferase serves as donor, and the signal depends on an acceptor being close.)

A short description of data set [3]: Pharmacokinetics and brain distribution after a single intraperitoneal dose. The following applies: i.p. 10 mg/kg, male C57BL/6 mice. Here is the method: For each compound, a group of twenty four male mice were administered with a solution formulation of the drug in normal saline intraperitoneally at a dose of 10 mg/kg. Blood samples (approximately 60 μL) were collected under light isoflurane anesthesia from the retro orbital plexus at 0.08, 0.25, 0.5, 1, 2, 4, 8 and 24 hr. Plasma samples were separated by centrifugation of whole blood and stored below −70° C. until bioanalysis. Immediately after collection of blood, brain samples were collected from each mouse at 0.08, 0.25, 0.5, 1, 2, 4, 8 and 24 hr. Brain samples were homogenized using ice-cold phosphate buffer saline (pH 7.4) and homogenates were stored below −70° C. until analysis. Total homogenate volume was three times the tissue weight. All samples were processed for analysis by protein precipitation using acetonitrile (ACN) and analyzed with fit-for-purpose LC/MS/MS method (LLOQ-1.01 ng/mL in plasma and brain). Pharmacokinetic parameters were calculated using the non-compartmental analysis tool of Phoenix WinNonlin® (Version 6.3).

T1 sequence (P35372 whole entry): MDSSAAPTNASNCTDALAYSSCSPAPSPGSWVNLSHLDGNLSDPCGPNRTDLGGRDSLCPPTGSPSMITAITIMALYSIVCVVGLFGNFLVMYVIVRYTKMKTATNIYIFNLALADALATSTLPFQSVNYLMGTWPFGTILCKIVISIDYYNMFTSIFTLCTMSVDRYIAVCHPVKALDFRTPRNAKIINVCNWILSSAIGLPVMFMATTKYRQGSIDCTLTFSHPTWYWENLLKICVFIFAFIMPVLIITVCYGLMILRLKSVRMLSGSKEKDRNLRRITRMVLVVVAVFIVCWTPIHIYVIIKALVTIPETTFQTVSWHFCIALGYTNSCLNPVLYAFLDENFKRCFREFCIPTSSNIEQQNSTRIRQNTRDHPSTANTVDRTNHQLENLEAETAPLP
T2 sequence (P42866 whole entry): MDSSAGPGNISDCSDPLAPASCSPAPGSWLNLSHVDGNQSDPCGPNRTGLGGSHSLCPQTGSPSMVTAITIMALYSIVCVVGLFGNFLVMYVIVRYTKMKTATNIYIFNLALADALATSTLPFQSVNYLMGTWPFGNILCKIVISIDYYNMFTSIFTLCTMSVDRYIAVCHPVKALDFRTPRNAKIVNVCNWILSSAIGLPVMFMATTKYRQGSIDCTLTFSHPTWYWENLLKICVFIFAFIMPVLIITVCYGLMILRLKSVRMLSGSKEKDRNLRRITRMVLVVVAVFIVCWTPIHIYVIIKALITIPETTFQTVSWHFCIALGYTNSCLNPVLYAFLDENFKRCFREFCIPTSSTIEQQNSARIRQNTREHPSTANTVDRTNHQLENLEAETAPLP

By EC50 is commonly meant the concentration needed to bring the measured effect to its halfway point. By Tmax is commonly meant the time from dosing to the highest level. For orientation: Cmax means the peak of the concentration-time curve. `COCCCNC1c2ccccc2N(C)S(=O)(=O)c2cc(Cl)ccc21` (stereo not drawn) [compound 23, 3-Chloro-11-((3-methoxypropyl)amino)-6-methyl-6,11-dihydrodibenzo [c,f][1,2]thiazepine 5,5-dioxide] showed an EC50 in data set [1] of 264 ± 85.3 nM. The EC50 in data set [2] was 1200 ± 30 nM. In data set [3] (brain), this compound had an AUClast of 335.03 ng·h/g, a CL of 260.44 mL/min/kg, an MRTlast of 1.27 h and a T1/2 of 5.12 h. Moreover, the Tmax in data set [3] (brain) turned out to be 0.08 h. For the same compound, in data set [3] (Tables 3 and 4), the “half-life compared with tianeptine” value was “much longer half-life” and the “systemic exposure (AUC) compared with tianeptine” value was “higher systemic exposure (AUC)”. Besides, in data set [3] (plasma), the AUClast worked out at 3058.80 ng·h/mL, the CL is on record as 44.27 mL/min/kg, the Cmax is listed as 1535.74 ng/mL and the MRTlast stood at 2.29 h. Further, in data set [3] (plasma), the T1/2 stood at 3.93 h and the Tmax amounted to 0.25 h.
